Results reported in the supplement of paper PMC4932681.

Columns and labels:
[1] = system: BT-474 Tam1; assay: drug sensitivity score (DSS) (DSS (dimensionless)); higher = more sensitive; extreme values may be limits of the assay; settings: 4-OH-tamoxifen in medium 1 µM; 72 h
Summary of the method: (§1)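 After seeding into 384-well plates with library drugs at five concentrations spanning a 10 000-fold range, breast cancer cell lines and their resistant derivatives were incubated 72 h at 37 °C. Resistant lines received medium with 1 μM of the selecting drug. CellTiter-Glo signal was read on a PHERAstar and scaled to vehicle-only and positive controls. Drug sensitivity score, relative IC50 (the curve midpoint) and top-dose inhibition came from logistic fits run in the Breeze pipeline.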

[2] = system: BT-474 Tam2; assay: as above; settings: 4-OH-tamoxifen in medium 1 µM; 72 h
Summary of the method: as §1

[3] = system: BT-474; assay: as above; settings: 72 h
Summary of the method: as §1

[4] = system: MCF-7 Tam1; assay: as above; settings: 4-OH-tamoxifen in medium 1 µM; 72 h
Summary of the method: as §1

[5] = system: MCF-7; assay: as above; settings: 72 h
Summary of the method: as §1

[6] = system: T-47D Tam1; assay: as above; settings: 4-OH-tamoxifen in medium 1 µM; 72 h
Summary of the method: as §1

[7] = system: T-47D Tam2; assay: as above; settings: 4-OH-tamoxifen in medium 1 µM; 72 h
Summary of the method: as §1

[8] = system: T-47D; assay: as above; settings: 72 h
Summary of the method: as §1

[9] = system: ZR-75-1 Tam1; assay: as above; settings: 4-OH-tamoxifen in medium 1 µM; 72 h
Summary of the method: as §1

[10] = system: ZR-75-1 Tam2; assay: as above; settings: 4-OH-tamoxifen in medium 1 µM; 72 h
Summary of the method: as §1

[11] = system: ZR-75-1; assay: as above; settings: 72 h
Summary of the method: as §1

[12] = system: BT-474 Tam1; assay: relative IC50 (midpoint of fitted logistic curve, plateau may be below 50% inhibition; CellTiter-Glo viability); higher = less potent; settings: 4-OH-tamoxifen in medium 1 µM; 72 h
Summary of the method: as §1

[13] = system: BT-474 Tam2; assay: as above; settings: 4-OH-tamoxifen in medium 1 µM; 72 h
Summary of the method: as §1

[14] = system: BT-474; assay: as above; settings: 72 h
Summary of the method: as §1

[15] = system: MCF-7; assay: as above; settings: 72 h
Summary of the method: as §1

[16] = system: T-47D Tam1; assay: as above; settings: 4-OH-tamoxifen in medium 1 µM; 72 h
Summary of the method: as §1

[17] = system: T-47D Tam2; assay: as above; settings: 4-OH-tamoxifen in medium 1 µM; 72 h
Summary of the method: as §1

[18] = system: T-47D; assay: as above; settings: 72 h
Summary of the method: as §1

[19] = system: ZR-75-1 Tam1; assay: as above; settings: 4-OH-tamoxifen in medium 1 µM; 72 h
Summary of the method: as §1

[20] = system: ZR-75-1 Tam2; assay: as above; settings: 4-OH-tamoxifen in medium 1 µM; 72 h
Summary of the method: as §1

[21] = system: ZR-75-1; assay: as above; settings: 72 h
Summary of the method: as §1

| relative IC50 [12] | relative IC50 [13] | relative IC50 ([14]; 4-OH-tamoxifen in medium 0 µM) | relative IC50 ([14]; 4-OH-tamoxifen in medium 1 µM) | relative IC50 ([15]; 4-OH-tamoxifen in medium 0 µM) | relative IC50 ([15]; 4-OH-tamoxifen in medium 1 µM) | relative IC50 [16] | relative IC50 [17] | relative IC50 ([18]; 4-OH-tamoxifen in medium 0 µM) | relative IC50 ([18]; 4-OH-tamoxifen in medium 1 µM) | SMILES | drug sensitivity score [1] | drug sensitivity score [2] | drug sensitivity score ([3]; 4-OH-tamoxifen in medium 0 µM) | drug sensitivity score ([3]; 4-OH-tamoxifen in medium 1 µM) | drug sensitivity score [4] | drug sensitivity score ([5]; 4-OH-tamoxifen in medium 0 µM) | drug sensitivity score ([5]; 4-OH-tamoxifen in medium 1 µM) | drug sensitivity score [6] | drug sensitivity score [7] | drug sensitivity score ([8]; 4-OH-tamoxifen in medium 0 µM) | drug sensitivity score ([8]; 4-OH-tamoxifen in medium 1 µM) | drug sensitivity score [9] | drug sensitivity score [10] | drug sensitivity score ([11]; 4-OH-tamoxifen in medium 0 µM) | drug sensitivity score ([11]; 4-OH-tamoxifen in medium 1 µM) | relative IC50 [19] | relative IC50 [20] | relative IC50 ([21]; 4-OH-tamoxifen in medium 0 µM) | relative IC50 ([21]; 4-OH-tamoxifen in medium 1 µM) |
| --- | --- | --- | --- | --- | --- | --- | --- | --- | --- | --- | --- | --- | --- | --- | --- | --- | --- | --- | --- | --- | --- | --- | --- | --- | --- | --- | --- | --- | --- |
| 1590 nM | 2610 nM | 3260 nM | 1860 nM | 2350 nM | 2940 nM | 1430 nM | 2530 nM | 1540 nM | 2780 nM | CN(C)C[C@@H]1CCn2cc(c3ccccc32)C2=C(C(=O)NC2=O)c2cn(c3ccccc23)CCO1 | 9.22 | 6.47 | 4.1 | 8.42 | 1.31 | 7.13 | 4.11 | 6.85 | 4.71 | 6.79 | 6.1 | 3.13 | 4.71 | 4.14 | 6.47 | 1400 nM | 942 nM | 1320 nM | 1560 nM |
| 14.5 nM | 14.9 nM | 21.6 nM | 8.56 nM | 25.4 nM | 34.7 nM | 43.9 nM | 91.3 nM | 43.5 nM | 13.2 nM | Cn1cc(CNCC2CCN(c3ncc(C(=O)NO)cn3)CC2)c2ccccc21 | 21.3 | 20.9 | 17.3 | 24.5 | 1.39 | 16.4 | 15.2 | 13.5 | 8.78 | 15.4 | 21.5 | 10 | 9.02 | 9.45 | 5.44 | 6.19 nM | 20.3 nM | 17.8 nM | 30 nM |
| 1920 nM | 1730 nM | – | 2750 nM | 4190 nM | 3250 nM | 1170 nM | 2000 nM | 3590 nM | – | N#Cc1ccc(COC[C@H]2O[C@@H](n3c(NCc4ccc(Cl)c(Cl)c4)nc4c(N)ncnc43)[C@H](O)[C@@H]2O)cc1 | 3.95 | 3.17 | 0.615 | 4.11 | 0.584 | 1.74 | 2.54 | 5.15 | 2.46 | 1.88 | 1.02 | 2.54 | 2.56 | 4.24 | 4.03 | 3000 nM | 3350 nM | 2070 nM | 1870 nM |
| – | > 10000 nM | – | 1850 nM | 2770 nM | – | > 10000 nM | 1940 nM | – | > 10000 nM | O=C(NC[C@H](O)CO)c1ccncc1Nc1ccc(I)cc1F | 0.041 | 0 | 0.702 | 3.92 | 0.0844 | 1.94 | 1.22 | 0 | 2.47 | 0 | 0 | 0 | 0 | 0 | 0 | > 10000 nM | > 10000 nM | > 10000 nM | – |
| – | > 10000 nM | – | 3450 nM | – | – | 1050 nM | 821 nM | – | – | COc1cc(Nc2ncc3c(n2)-c2ccc(Cl)cc2C(c2c(F)cccc2OC)=NC3)ccc1C(=O)O [Alisertib (MLN8237)] | 0.0274 | 0 | 0.464 | 1.48 | 0.522 | 0.284 | 0 | 3.59 | 4.18 | 3.12 | 0.856 | 0 | 0 | 0 | 0 | > 10000 nM | > 10000 nM | > 10000 nM | – |
| 35.4 nM | 56.9 nM | 75.3 nM | 49 nM | 110 nM | 409 nM | 175 nM | 284 nM | 346 nM | 359 nM | COc1c(C)cnc(Cn2cnc3c(Cl)nc(N)nc32)c1C [BIIB021] | 22 | 22 | 14.6 | 22.8 | 2.87 | 13.9 | 7.58 | 9.86 | 8.67 | 11.6 | 9.03 | 5.21 | 5.51 | 4.41 | 4.44 | 557 nM | 499 nM | 477 nM | 698 nM |
| 958 nM | 870 nM | 547 nM | 354 nM | 363 nM | 554 nM | 1260 nM | 1180 nM | 795 nM | 857 nM | O=C(/C=C/c1cccc(S(=O)(=O)Nc2ccccc2)c1)NO [Belinostat  (PXD101)] | 10.5 | 9.18 | 12.8 | 16.8 | 2.18 | 14.7 | 12.7 | 9.66 | 7.43 | 12 | 11.9 | 4.54 | 6.02 | 4.2 | 3.84 | 964 nM | 833 nM | 791 nM | 1200 nM |
| 11.7 nM | 18.6 nM | 31.3 nM | 12.4 nM | 1290 nM | 1640 nM | 513 nM | 1580 nM | 1230 nM | – | C=CC(=O)Nc1cc2c(Nc3ccc(F)c(Cl)c3)ncnc2cc1OCCCN1CCOCC1 [Canertinib] | 34.2 | 31.6 | 24.8 | 33.6 | 1.4 | 6.68 | 6.46 | 6.06 | 5.77 | 3.92 | 0.761 | 2.99 | 2.58 | 3 | 3.11 | 1740 nM | 2780 nM | 2090 nM | 1510 nM |
